Tests used:
Pten KO mice [1] = test: Social-open field test in Pten KO mice; assay type: in vivo; settings: 5 or 10 mg/kg, FIG. 3
Description: (§1) As Pten KO mice, Ptenf/f_cre/cre KO mice or Ptenf/f_cre/++ Het mice (KD) were obtained by mating Pten floxed/floxed mice and CAMKII-cre mice. DMSO or athyriol was intraperitoneally injected at 5 or 10 mg/kg for 2 weeks from the age of mice of 6 weeks, and a behavioral test was performed in 7 days after administration. Pten floxed/floxed mice were used as littermates of the same age as a normal control group.
When athyriol was administered to the Pten KO mice, in order to confirm the sociability disorder was improved, a social-open field test was performed. After adapting the Pten-KO mice to the record environment for 30 minutes, they were adapted to the open filed test space made of black acrylic for 10 minutes. An unfamiliar mouse was placed in a test space in a transparent acrylic cage allowing minimal contact with the sense of smell. The movement of the test mouse was recorded for 10 minutes and analyzed with ethovision 3.1 program. Then, sociability was measured by setting 10 cm around the cylinder where the unfamiliar mouse was placed.
The social-open field test is measuring sociability as the time spent in a social interaction zone in contact with other mice in an open space, and measures the time of actually contacting also in the contact space, or sniffling toward other mice. […]

Pten KO mice [2] = test: Y-type maze test in Pten KO mice; assay type: in vivo; settings: 5 or 10 mg/kg intraperitoneally for 14 days, FIG. 1a
Description: as §1
(§2) A Y-maze was performed in a Y-shaped structure maze made of black acrylic material in which an angle of each arm was 120°, and a light and a cam were installed on the ceiling, and it was checked that white mice entered each arm while the surroundings were covered with a curtain. Through this, short-term memory was analyzed. In order to adapt mice to the environment, they were acclimated to the experimental space for 30 minutes. The mice were placed at one end of the maze and allowed to move freely for 12 minutes. Accuracy was measured by dividing time into 8 minutes, 10 minutes and 12 minutes. When the four paws of the mice entered the entrance, it was considered as completely entered. The percentage of accuracy was calculated as the number of times which a mouse entered each maze without repetition. The number of times entering each of three different arms was divided by the total number of times entering arms-2 and converted into a percentage for datafication. […]

Pten KO mice [3] = test: 3-chamber test in Pten KO mice; assay type: in vivo
Description: as §1
3-chamber test is a test to confirm sociability, social cognition, and social sexual preference, and it was tested by composing sessions 1 and 2. The experimental site was consisted of three chambers made of transparent acrylic walls with a small door and each chamber was length 50 cm×width 100 cm×height 50 cm. Through a cylindrical cage, the sense of smell and minimal contact of the test mice to the unfamiliar mouse were allowed. Prior to the test, the test mice were placed in an intermediate chamber and adapted for 5 minutes with both doors closed. The test was performed by dividing into sessions I and II. In the 3-chamber sociability measurement-1 session, an unfamiliar mouse met first was placed in a transparent box located at one end of the three rooms, and an empty transparent box of the same size was placed in the room located at the other side, and the target mouse was placed in the middle room, and then the time searching toward the counterpart within the social interaction zone was measured.
In the 3-chamber sociability measurement-2 session, an unfamiliar met first was placed in a transparent box located at one end of the three rooms, and the mouse met in the session 1 was placed in the same transparent box in the room located at the other side. […] Therefore, it could be confirmed that the sociability disorder occurring in the Pten KO mice was improved to the normal group level by athyriol administration.

normal mice = test: Y-type maze test in normal mice; assay type: in vivo; settings: 5 mg/kg intraperitoneally, FIG. 14a
Description: as §2, with “repetition.” for “repetition. The number of times entering each of three different arms was divided by the total number of times entering arms-2 and converted into a percentage for datafication.”
In order to verify this possibility, the efficacy of athyriol on memory ability and sociability of normal animals was investigated. A vehicle (30% DMSO) or athyriol was intraperitoneally injected at a dose of 5 mg/kg into normal mice (n=10), and from the 7th day after administration, the memory ability was evaluated by the same method as the Y-type maze test of Experimental example 1-2, and the sociability was evaluated by the same method as the 3 chamber test of Experimental example 1-6.

Arc protein expression = test: mGluR-dependent Arc protein expression in cerebral neurons; assay type: cell-based
Description: When mGluR is activated in dendritic spines of cerebral neurons, Arc protein is synthesized, and the Arc protein promotes endocytosis of an AMPA receptor to form LTD.
Specifically, DHPG was treated to cerebral neurons, which were obtained by primary culture of white mouse embryo E16 cerebral regions and differentiated for […] (DIV21), for 5 minutes or 10 minutes to activate mGluR. As an Arc antibody, Arc protein (green) and PSD95 (red), which is a marker antibody of postsynaptic density of a synapse, were under
After double immunofluorescent staining of Arc protein with an Arc antidody (green) and PSD95, a marker of postsynaptic density of synapse, with an PSD95 antibody (red), Arc expression in dendritic spines was quantified as the number of Arc+PSD95 double stained puncta per 20 μm neurite length by confocal scanning microscopic scanning.

Structure (SMILES) | increase of direct counterpart searching time (Pten KO mice [1]) [%] | short-term memory in Y-type maze test (Pten KO mice [2]) | increase of time of searching the unfamiliar mouse over normal control group, session 2 (Pten KO mice [3]; 10 mg/kg, session 2) [%] | time searching the unfamiliar mouse, session 1 (Pten KO mice [3]; 3-chamber sociability measurement-1 session, FIG. 4) | time of searching the unfamiliar mouse, session 2 (Pten KO mice [3]; 5 or 10 mg/kg, 3-chamber sociability measurement-2 session) | improvement of memory ability in Y-type maze test compared to vehicle control (normal mice) [%] | increase of Arc protein synthesis (immunoblot of cell lysate) (Arc protein expression; DHPG-induced, FIG. 12b) | Arc synthesis in dendritic spines (immunofluorescent staining) (Arc protein expression; pretreated for 2 hours before treating DHPG, FIG. 12a)
COc1cc(O)c2c(=O)c3cc(O)c(O)cc3oc2c1 [athyriol, 1,6,7-Trihydroxy-3-methoxy-9H-xanthen-9-on] | 6 | recovered almost to the level of the normal control group | 14 | recovered to the normal control group level in a concentration-dependent manner | increased in a dose-dependent manner | ≥ 25 | – | –
O=c1c2cc(O)c(O)cc2oc2cc(O)cc(O)c12 [norathyriol, 1,3,6,7-tetrahydroxy-9H-xanthen-9-one] | – | – | – | – | – | – | inhibited in a dose-dependent manner | the increase of Arc synthesis by DHPG was not found
